{
  "source": "patent US7045495B2",
  "about": "(Sloan-Kettering Institute for Cancer Research, priority 1996, dated 2006)",
  "key": {"SK-GT-5": {"system": "SK-GT-5", "assay": "clonogenic assay, resistance relative to MKN-74", "assay_type": "cell-based, human", "conditions": "10 μg/ml CDDP, 5 μg/ml MMC, 50 FM 5-FU", "excerpt": "(§1) The basis of drug resistance in these disease has not been well defined. […] For gastric cancer applicants have been successful in establishing five long-term cell lines, SK-GT-1, SK-GT-2, SK-GT-4, SK-GT-5, and SK-GT-6 for Sloan Kettering Gastric Tumor (12,13) none of which express P-glycoprotein (14). Yet, all these tumors are resistant to chemotherapy and to the induction of apoptosis. Applicants have reported that the relative sensitivity of these gastric cancer cells to chemotherapy is influenced by their p53 status (14)."}, "SK-GT-2": {"system": "SK-GT-2", "assay": "clonogenic assay, resistance relative to MKN-74", "assay_type": "cell-based, human", "conditions": "10 μg/ml CDDP, 5 μg/ml MMC, 50 FM 5-FU", "excerpt": "as §1"}, "SK-GT-1": {"system": "SK-GT-1", "assay": "clonogenic assay, resistance relative to MKN-74", "assay_type": "cell-based, human", "conditions": "clonogenic survival ratio, 10 μg/ml CDDP, 5 μg/ml MMC, 50 FM 5-FU", "excerpt": "as §1"}, "NU-GC-4": {"system": "NU-GC-4", "assay": "clonogenic assay, resistance relative to MKN-74", "assay_type": "cell-based, human", "conditions": "10 μg/ml CDDP, 5 μg/ml MMC", "excerpt": "as §1"}, "MKN-74": {"system": "MKN-74", "assay": "clonogenic assay, resistance relative to MKN-74", "assay_type": "cell-based, human", "conditions": "MKN-74 (reference); 10 μg/ml CDDP, 5 μg/ml MMC, 50 FM 5-FU", "excerpt": "as §1"}, "SK-GT-2 cells": {"system": "SK-GT-2 cells", "assay": "apoptosis by QFM, Hoechst-33258 staining", "assay_type": "cell-based, human", "conditions": "24 hours", "description": "(i) Safingol enhances MMC-induced apoptosis: SK-GT-5 cells, which have a mutated p53 gene (9), were treated with safingol in the presence or absence of MMC for 24 hours. For determination of apoptosis SK-GT-5 cells were treated according to one of several conditions: (i) no drug (control) for 24 hours, (ii) Safingol alone (50 μM) for 24 hours. (This concentration represents the highest non-toxic dose of safingol for the SK-GT-5 cells, as determined by cell proliferation studies, and slightly exceeds the safingol concentration (30 μM) which inhibits PKC enzyme activity by 50% in vitro.), (iii) Mitomycin-C alone (2.5 μg/ml) for 24 hours, (iv) Mitomycin-C alone (5 μg/ml) for 24 hours, (v) the combination of safingol (50 μM) and Mitomycin-C (2.5 μg/ml) for 24 hours, (vi) the combination of safingol (50 μM) and Mitomycin-C (5 μg/ml) for 24 hours. Apoptosis was measured by quantitative fluorescent microscopy (QFM) of nuclear changes induced by apoptosis, as determined by bisbenzimide trihydrochloride (Hoescht-33258) staining of condensed nuclear chromatin (3,5). For the QFM duplicate samples of 500 cells each were counted and scored for the incidence of apoptotic chromatin condensation using an Olympus BH-2 fluorescence microscope.\n(ii) UCN-01 enhances MMC-induced apoptosis: SK-GT-2 cells, which have a mutation in p53, were treated with increasing concentrations of UCN-01 in the presence or absence of a fixed dose of MMC for 24 hours.\nBoth UCN-01 and Flavo inhibit PKC. These drugs are cytotoxic to tumor cells and have been reported to induce apoptosis. […] In order to test this hypothesis we elected to treat gastric cancer cells, MKN-74 and SK-GT-2, as well as breast cancer cells, MDA-MB-468, with UCN-01 (7.5 to 10 μM) or Flavo (300 nM) in the presence or absence of MMC (5 μg/ml) or Taxol (50 μM) for 24 hours. Induction of apoptosis was estimated by counting the frequency of condensed nuclear chromatin with Hoechst-33258 stain in duplicate samples of 400 cells."}, "MDA-MB-468 cells": {"system": "MDA-MB-468 cells", "assay": "cell proliferation studies", "assay_type": "cell-based, human"}, "16C mammary carcinoma": {"system": "16C mammary carcinoma", "conditions": "safingol 5 to 20 mg/kg; cited from earlier work"}, "[1]": {"assay": "phase I trial safingol with doxorubicin: plasma pharmacokinetics", "assay_type": "in vivo, patients", "conditions": "human, intravenous", "description": "(iii) Safingol pharmacokinetics appear linear with increasing dose: The pharmacokinetics of patients treated with safingol and DOX at 45 mg/m^2 is shown below: […]"}, "[2]": {"parameters": "species or system patients", "conditions": "in vivo", "description": "Individual patients could receive up to six cycles of treatment with the same dose of safingol and doxorubicin (DOX) every 21 days, until signs of tumor progression or unacceptable toxicity occurs, or until the patient's cumulative life-time dose of doxorubicin exceeds 400 mg/m^2 with an additional cycle of treatment. Prior DOX therapy was allowed up to a dose of 280 mg/m^2 as long as the left ventricular ejection fraction was>50%. The starting dose of safingol was 15 mg/m^2.\nIn fact the white blood count nadirs have increased with increasing safingol dose. Dose escalation above 120 mg/m^2 is planned.\nThis was associated with no changes in reticulocyte count, no evidence of hemolysis on the peripheral smear, no “pink” discoloration to the plasma, and no evidence or urine hemosiderin. This was believed to be related to relatively poor venous access which only became apparent on the first day of therapy. The patient was retreated according to applicants, protocol criteria for grade I hemolysis which included infusion of safingol through a central vein and at one half the concentration (twice the total volume but the same total dose). Under these conditions the patient has experienced no further evidence of hemolysis."}, "PKC": {"system": "PKC", "conditions": "cited from earlier work"}, "[3]": {"assay": "preclinical pharmacology of safingol", "conditions": "mouse, in vivo, mice", "description": "Based on the mice studies applicants have predicted that in order to achieve meaningful chemopotentiation with either DOX or cisplatin applicants need to deliver the equivalent mouse dose of 5 mg/kg to 20 mg/kg safingol. […] From the pharmacology data obtained thus far from the patients treated with escalating doses of safingol and 45 mg/m^2 of DOX, it appears that applicants are approaching these target levels."}, "[4]": {"target": "cyclic-adenosine monophosphate-dependent protein kinase A", "conditions": "read-out: concentration for 50% inhibition of protein kinase A; safingol; cited from earlier work"}, "[5]": {"conditions": "rat, in vivo; cited from earlier work"}},
  "note": "“And” between values parts separate entries of the source, which are not always exact repeats. Equal entries are not always repeated.",
  "data": [
    {"molecule": "CO[C@@]12[C@H](COC(N)=O)C3=C(C(=O)C(C)=C(N)C3=O)N1C[C@@H]1N[C@@H]12", "note": "[MMC, Mitomycin-C]", "values": [
      {"measurement": "Fold-Increase in Resistance Relative to MKN-74 (p53wt)", "setting": "SK-GT-5", "value": 55, "unit": "X"},
      {"measurement": "Fold-Increase in Resistance Relative to MKN-74 (p53wt)", "setting": "SK-GT-2", "value": 106, "unit": "X"},
      {"measurement": "Fold-Increase in Resistance Relative to MKN-74 (p53wt)", "setting": "SK-GT-1", "value": 166, "unit": "X"},
      {"measurement": "Fold-Increase in Resistance Relative to MKN-74 (p53wt)", "setting": "NU-GC-4", "value": 10, "unit": "X"},
      {"measurement": "Fold-Increase in Resistance Relative to MKN-74 (p53wt)", "setting": "MKN-74", "value": 1, "unit": "X"},
      {"measurement": "percentage of cells undergoing apoptosis (QFM)", "setting": "SK-GT-2 cells; MMC alone 5.0 μg/ml", "value": "7%±3%"},
      {"measurement": "induction of apoptosis (condensed chromatin, 400 cells)", "setting": "SK-GT-2 cells; UCN-01 7.5 to 10 μM, MMC 5 μg/ml", "value": "11% ± 2"}
    ]},
    {"molecule": "CCCCCCCCCCCCCCC[C@H](O)[C@@H](N)CO", "note": "[safingol, L-threo-dihydrosphingosine]", "values": [
      {"measurement": "highest non-toxic dose (cell proliferation studies)", "setting": "MDA-MB-468 cells", "value": 50, "unit": "µM"},
      {"measurement": "effect on tumor cell growth, single agent", "setting": "16C mammary carcinoma", "value": "no effect on inhibiting tumor cell growth"},
      {"measurement": "Cmax", "setting": "[1]; 15 mg/m2, dose level 15 mg/m^2", "value": 199, "unit": "ng/mL"},
      {"measurement": "AUC", "setting": "[1]; 15 mg/m2, dose level 15 mg/m^2, read-out: AUC without DOX (first column)", "value": 168, "unit": "ng·h/mL"},
      {"measurement": "AUC", "setting": "[1]; 15 mg/m2, dose level 15 mg/m^2, read-out: AUC without DOX (second column)", "value": 161, "unit": "ng·h/mL"},
      {"measurement": "Cmax", "setting": "[1]; 30 mg/m2, dose level 30 mg/m^2", "value": 336, "unit": "ng/mL"},
      {"measurement": "AUC", "setting": "[1]; 30 mg/m2, dose level 30 mg/m^2, read-out: AUC without DOX (first column)", "value": 501, "unit": "ng·h/mL"},
      {"measurement": "AUC", "setting": "[1]; 30 mg/m2, dose level 30 mg/m^2, read-out: AUC without DOX (second column)", "value": 428, "unit": "ng·h/mL"},
      {"measurement": "Cmax", "setting": "[1]; 60 mg/m2, dose level 60 mg/m^2", "value": 422, "unit": "ng/mL"},
      {"measurement": "AUC", "setting": "[1]; 60 mg/m2, dose level 60 mg/m^2, read-out: AUC without DOX (first column)", "value": 531, "unit": "ng·h/mL"},
      {"measurement": "AUC", "setting": "[1]; 60 mg/m2, dose level 60 mg/m^2, read-out: AUC without DOX (second column)", "value": 501, "unit": "ng·h/mL"},
      {"measurement": "Cmax", "setting": "[1]; 120 mg/m2, dose level 120 mg/m^2", "value": 988, "unit": "ng/mL"},
      {"measurement": "AUC", "setting": "[1]; 120 mg/m2, dose level 120 mg/m^2, read-out: AUC without DOX (first column)", "value": 1230, "unit": "ng·h/mL"},
      {"measurement": "AUC", "setting": "[1]; 120 mg/m2, dose level 120 mg/m^2, read-out: AUC without DOX (second column)", "value": 1230, "unit": "ng·h/mL"},
      {"measurement": "dose limiting hematologic toxicity", "setting": "[2]", "value": "no-dose limiting hematologic toxicity"},
      {"measurement": "hemolysis", "setting": "[2]", "value": "only one patient has experienced a grade I hemolysis"},
      {"measurement": "concentration range that inhibits PKC activity", "setting": "PKC", "value": "micromolar ranges"},
      {"measurement": "IC50", "setting": "PKC; safingol, in vitro, read-out: concentration which inhibits PKC enzyme activity by 50%", "value": "33 µM and 30 µM"},
      {"measurement": "AUC", "setting": "[3]; 5 mg/kg safingol", "value": 668, "unit": "ng·h/mL"},
      {"measurement": "Cmax", "setting": "[3]; 5 mg/kg safingol", "value": 1800, "unit": "ng/mL"},
      {"measurement": "AUC", "setting": "[3]; 20 mg/kg safingol", "value": 2700, "unit": "ng·h/mL"},
      {"measurement": "Cmax", "setting": "[3]; 20 mg/kg safingol", "value": 7020, "unit": "ng/mL"},
      {"measurement": "IC50", "setting": "[4]", "value": "> 218", "unit": "µM"},
      {"measurement": "potentiation of toxicity of chemotherapeutic agents", "setting": "[5]", "value": "did not potentiate the myelotoxicity of these agents"}
    ]}
  ]
}
